ChEMBL document CHEMBL4184119, “Identification of 2-thioxoimidazolidin-4-one derivatives as novel noncovalent proteasome and immunoproteasome inhibitors” (Bioorg Med Chem Lett, 2018)
Calls of active or inactive are those of the source. The calls are words filed in the database; no cut-off is given here.

Experiments:
[1] = molecular target: Proteasome Macropain subunit (Homo sapiens) (UniProt P49721); assay: Inhibition of 20s constitutive proteasome beta2 trypsin-like activity in human erythrocytes using Boc-Leu-Arg-Arg-AMC as substrate at 50 uM after 10 mins by fluorescence assay relative to control; type: cell-based
[2] = molecular target: T1, Proteasome Macropain subunit MB1 (Homo sapiens, UniProt P28074); assay: Inhibition of 20s constitutive proteasome beta5 chymotrypsin-like activity in human erythrocytes using Suc-Leu-Leu-Val-Tyr-AMC as substrate after 10 mins by fluorescence assay
T1 sequence (P28074 whole entry): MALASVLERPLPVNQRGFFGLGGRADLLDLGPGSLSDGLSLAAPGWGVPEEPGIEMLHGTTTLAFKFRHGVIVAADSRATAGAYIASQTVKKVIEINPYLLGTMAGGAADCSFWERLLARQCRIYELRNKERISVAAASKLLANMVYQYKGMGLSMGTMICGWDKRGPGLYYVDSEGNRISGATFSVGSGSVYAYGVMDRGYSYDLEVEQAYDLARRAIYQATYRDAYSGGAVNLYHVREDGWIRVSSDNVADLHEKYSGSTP

[3] = molecular target: T2, Proteasome component C5 (Homo sapiens) (UniProt P20618); assay: Inhibition of 20s constitutive proteasome beta1 caspase-like activity in human erythrocytes using Z-Leu-Leu-Glu-AMC as substrate at 50 uM after 10 mins by fluorescence assay relative to control; type: cell-based
T2 sequence (whole entry): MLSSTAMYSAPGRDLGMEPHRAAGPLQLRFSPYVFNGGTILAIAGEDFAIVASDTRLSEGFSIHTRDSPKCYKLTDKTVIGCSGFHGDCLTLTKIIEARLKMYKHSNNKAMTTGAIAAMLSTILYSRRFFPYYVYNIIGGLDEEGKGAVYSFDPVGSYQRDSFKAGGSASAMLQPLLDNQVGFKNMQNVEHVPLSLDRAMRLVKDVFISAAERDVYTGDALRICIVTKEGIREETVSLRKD

[4] = molecular target: T3, Proteasome Macropain subunit MB1 (Homo sapiens) (UniProt P28074); assay: Selectivity ratio of inhibitory concentration for 20s constitutive proteasome beta5 chymotrypsin-like activity in human erythrocytes to Ki for 20s immunoproteasome beta5 chymotrypsin-like activity in human spleen; type: cell-based
T3 sequence (whole entry): T1 sequence (P28074 whole entry)

[5] = molecular target: Proteasome Macropain subunit (Homo sapiens) (UniProt P49721); assay: Inhibition of 20s immunoproteasome beta2 trypsin-like activity in human spleen using Boc-Leu-Arg-Arg-AMC as substrate at 50 uM after 10 mins by fluorescence assay relative to control
[6] = molecular target: T3, Proteasome Macropain subunit MB1 (Homo sapiens); assay: Reversible inhibition of 20s constitutive proteasome beta5 chymotrypsin-like activity in human erythrocytes using Suc-Leu-Leu-Val-Tyr-AMC as substrate at 50 uM preincubated for 30 mins followed by compound dilution measured after 30 mins by fluorescence assay; type: cell-based
[7] = Growth inhibition of human MM1R cells after 24 hrs by MTT assay; type: functional; settings: MM.1R
[8] = molecular target: T3, Proteasome Macropain subunit MB1 (Homo sapiens); assay: Inhibition of 20s immunoproteasome beta5 chymotrypsin-like activity in human spleen using Suc-Leu-Leu-Val-Tyr-AMC as substrate at 50 uM after 10 mins by fluorescence assay relative to control
[9] = molecular target: T3, Proteasome Macropain subunit MB1 (Homo sapiens); assay: Inhibition of 20s constitutive proteasome beta5 chymotrypsin-like activity in human erythrocytes using Suc-Leu-Leu-Val-Tyr-AMC as substrate at 50 uM after 10 mins by fluorescence assay relative to control; type: cell-based

Proteasome Macropain subunit (Homo sapiens), sequence (P49721 whole entry): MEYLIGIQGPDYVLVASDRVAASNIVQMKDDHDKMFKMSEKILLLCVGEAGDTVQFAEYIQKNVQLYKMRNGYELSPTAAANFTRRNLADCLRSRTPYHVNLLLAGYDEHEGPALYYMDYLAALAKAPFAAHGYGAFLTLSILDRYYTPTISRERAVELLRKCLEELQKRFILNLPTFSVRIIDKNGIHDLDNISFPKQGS

inhibition [1]	Ki [2] [µM]	inhibition [3]	Ratio [4]	inhibition [5]	inhibition [6]	inhibition [8]	inhibition [9]	SMILES	IC50 [7] [µM]
29%	13.6	58%	7	50%	Active			COc1ccc(/C=C2\NC(=S)N(c3ccccc3)C2=O)cc1OC	36.7
57%						56%	20%	O=C1/C(=C/c2ccc(Oc3ccccc3)cc2)NC(=S)N1c1cccc2ccccc12	
5%		inactive		53%		58%	13%	O=C1/C(=C/c2ccc(Oc3ccccc3)cc2)NC(=S)N1c1ccccc1	
		59%				50%	28%	CSc1ccc(/C=C2\NC(=S)N(c3ccccc3)C2=O)cc1	
38%		47%		inactive		inactive	inactive	O=C1CNC(=S)N1c1cccc2ccccc12	
36%	17.9	52%		18%				COc1cccc(/C=C2\NC(=S)N(c3ccccc3)C2=O)c1	25.9
32%	23.6	54%						COc1cc(/C=C2\NC(=S)N(c3ccccc3)C2=O)ccc1O	20.2
37%		28%	20	45%			45%	COc1ccc(/C=C2\NC(=S)N(c3ccccc3)C2=O)cc1O	40.7
								CC(C)CC(NC(=O)[C@H](CC(C)C)NC(=O)OCc1ccccc1)C(=O)N[C@H](C=O)CC(C)C (single isomer, unassigned) [MG-132]	14.4
inactive		32%		inactive		53%	47%	O=C1CNC(=S)N1c1ccccc1	
inactive		inactive		32%		56%	39%	O=C1/C(=C/c2cccc(Oc3ccccc3)c2)NC(=S)N1c1ccccc1	
35%		56%		29%			45%	COc1ccc(/C=C2\NC(=S)N(c3ccccc3)C2=O)cc1	19.4
